# Reference: the kinase profiling compilation of Christmann-Franck et al. (2016)
# Assays:
# Assay in all cases: radiometric filter-binding kinase assay
# MAPKAPK3 (human) = MAPKAPK3 (human) (UniProt Q16644)
# CHEK2 (human) = CHEK2 (human) (UniProt O96017)
# CHEK1 (human) = CHEK1 (human) (UniProt O14757)
# [1] = system: RPS6KB1 (human), P23443 [T412E]
# NEK2 (human) = NEK2 (human) (UniProt P51955)
# PKN2 (human) = PKN2 (human) (UniProt Q16513)
# TLK1 (human) = TLK1 (human) (UniProt Q9UKI8)
# MKNK2 (human) = MKNK2 (human) (UniProt Q9HBH9)
# TAOK1 (human) = TAOK1 (human) (UniProt Q7L7X3)
# [2] = system: AKT1 (human), P31749 [S473D]
# DYRK2 (human) = DYRK2 (human) (UniProt Q92630)
# PAK7 (human) = PAK7 (human) (UniProt Q9P286)
# MAPK1 (human) = MAPK1 (human) (UniProt P28482)
# MAPK15 (human) = MAPK15 (human) (UniProt Q8TD08)
# EPHB4 (human) = EPHB4 (human) (UniProt P54760)
# PRKACA (human) = PRKACA (human) (UniProt P17612)
# RPS6KA3 KD1 KD2 (human) = RPS6KA3 KD1 KD2 (human) (UniProt P51812)
# MAPK9 (human) = MAPK9 (human) (UniProt P45984)
# MAPK3 (human) = MAPK3 (human) (UniProt P27361)
# HIPK1 (human) = HIPK1 (human) (UniProt Q86Z02)
# MAPK11 (human) = MAPK11 (human) (UniProt Q15759)
# EPHA4 (human) = EPHA4 (human) (UniProt P54764)
# SYK (human) = SYK (human) (UniProt P43405)
# FLT1 (human) = FLT1 (human) (UniProt P17948)
# PAK6 (human) = PAK6 (human) (UniProt Q9NQU5)
# NUAK1 (human) = NUAK1 (human) (UniProt O60285)
# IKBKB (human) = IKBKB (human) (UniProt O14920)
# DAPK1 (human) = DAPK1 (human) (UniProt P53355)
# EEF2K (human) = EEF2K (human) (UniProt O00418)
# EEF2K (human), sequence (O00418 whole entry, looked up): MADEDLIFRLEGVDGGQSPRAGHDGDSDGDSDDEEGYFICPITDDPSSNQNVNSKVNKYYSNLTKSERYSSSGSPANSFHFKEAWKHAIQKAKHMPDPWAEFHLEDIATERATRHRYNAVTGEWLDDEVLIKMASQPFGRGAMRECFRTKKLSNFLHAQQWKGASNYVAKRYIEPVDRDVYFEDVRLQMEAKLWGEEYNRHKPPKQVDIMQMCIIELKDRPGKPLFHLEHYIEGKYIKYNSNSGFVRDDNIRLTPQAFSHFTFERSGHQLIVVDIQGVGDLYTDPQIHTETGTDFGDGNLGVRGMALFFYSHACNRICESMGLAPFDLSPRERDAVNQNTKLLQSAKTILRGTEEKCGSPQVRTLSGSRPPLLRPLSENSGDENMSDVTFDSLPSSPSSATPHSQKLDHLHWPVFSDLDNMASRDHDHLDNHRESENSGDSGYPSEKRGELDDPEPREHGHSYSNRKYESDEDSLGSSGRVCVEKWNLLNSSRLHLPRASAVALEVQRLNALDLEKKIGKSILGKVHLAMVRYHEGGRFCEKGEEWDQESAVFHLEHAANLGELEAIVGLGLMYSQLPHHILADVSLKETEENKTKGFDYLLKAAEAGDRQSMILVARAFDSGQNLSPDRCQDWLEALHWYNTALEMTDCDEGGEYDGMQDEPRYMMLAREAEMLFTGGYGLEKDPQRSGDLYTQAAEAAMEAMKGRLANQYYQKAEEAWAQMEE
# PAK6 (human), sequence (Q9NQU5 whole entry, looked up): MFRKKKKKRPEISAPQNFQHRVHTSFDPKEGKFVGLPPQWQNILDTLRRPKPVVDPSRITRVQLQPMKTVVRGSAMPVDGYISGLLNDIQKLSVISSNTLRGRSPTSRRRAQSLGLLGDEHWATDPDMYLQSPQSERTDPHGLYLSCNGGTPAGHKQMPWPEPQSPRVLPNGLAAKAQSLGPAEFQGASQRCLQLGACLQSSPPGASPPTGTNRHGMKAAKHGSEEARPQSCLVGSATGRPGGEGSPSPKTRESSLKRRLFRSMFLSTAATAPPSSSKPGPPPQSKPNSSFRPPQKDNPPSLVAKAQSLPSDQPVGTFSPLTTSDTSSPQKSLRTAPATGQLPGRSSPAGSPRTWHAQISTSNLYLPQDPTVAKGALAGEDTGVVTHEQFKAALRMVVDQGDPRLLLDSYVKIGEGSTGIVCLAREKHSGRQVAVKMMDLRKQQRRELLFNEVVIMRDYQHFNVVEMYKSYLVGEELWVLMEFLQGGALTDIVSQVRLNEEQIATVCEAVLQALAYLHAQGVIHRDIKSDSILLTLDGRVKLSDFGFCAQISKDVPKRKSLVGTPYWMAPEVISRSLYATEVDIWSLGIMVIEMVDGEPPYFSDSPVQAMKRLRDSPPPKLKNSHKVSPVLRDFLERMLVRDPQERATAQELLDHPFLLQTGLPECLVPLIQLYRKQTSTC
# MAPK3 (human), sequence (P27361 whole entry, looked up): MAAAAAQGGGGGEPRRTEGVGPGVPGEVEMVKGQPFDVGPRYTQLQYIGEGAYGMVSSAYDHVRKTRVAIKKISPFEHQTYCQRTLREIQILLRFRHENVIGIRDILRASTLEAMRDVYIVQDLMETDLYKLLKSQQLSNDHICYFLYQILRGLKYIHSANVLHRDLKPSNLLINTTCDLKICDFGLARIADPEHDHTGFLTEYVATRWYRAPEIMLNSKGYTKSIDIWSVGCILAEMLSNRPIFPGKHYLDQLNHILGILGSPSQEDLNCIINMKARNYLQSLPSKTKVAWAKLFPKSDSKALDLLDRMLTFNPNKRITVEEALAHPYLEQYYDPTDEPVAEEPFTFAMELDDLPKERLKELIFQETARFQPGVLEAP
# DYRK2 (human), sequence (Q92630 whole entry, looked up): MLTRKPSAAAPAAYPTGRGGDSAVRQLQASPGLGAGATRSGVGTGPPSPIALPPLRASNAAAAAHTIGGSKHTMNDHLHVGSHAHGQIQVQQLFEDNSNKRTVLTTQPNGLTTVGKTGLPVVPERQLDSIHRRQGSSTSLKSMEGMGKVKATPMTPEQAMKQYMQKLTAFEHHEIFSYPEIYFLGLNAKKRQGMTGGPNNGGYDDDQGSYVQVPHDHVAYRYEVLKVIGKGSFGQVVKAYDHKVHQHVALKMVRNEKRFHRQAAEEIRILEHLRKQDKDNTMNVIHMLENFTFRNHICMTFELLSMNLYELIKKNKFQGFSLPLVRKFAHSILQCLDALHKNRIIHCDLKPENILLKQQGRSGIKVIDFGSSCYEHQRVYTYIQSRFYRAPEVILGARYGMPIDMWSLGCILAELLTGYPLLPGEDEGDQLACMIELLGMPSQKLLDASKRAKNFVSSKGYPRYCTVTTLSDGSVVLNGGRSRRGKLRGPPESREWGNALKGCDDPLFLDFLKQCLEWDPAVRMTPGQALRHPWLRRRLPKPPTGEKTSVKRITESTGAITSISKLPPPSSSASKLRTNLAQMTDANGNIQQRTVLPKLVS
# NUAK1 (human), sequence (O60285 whole entry, looked up): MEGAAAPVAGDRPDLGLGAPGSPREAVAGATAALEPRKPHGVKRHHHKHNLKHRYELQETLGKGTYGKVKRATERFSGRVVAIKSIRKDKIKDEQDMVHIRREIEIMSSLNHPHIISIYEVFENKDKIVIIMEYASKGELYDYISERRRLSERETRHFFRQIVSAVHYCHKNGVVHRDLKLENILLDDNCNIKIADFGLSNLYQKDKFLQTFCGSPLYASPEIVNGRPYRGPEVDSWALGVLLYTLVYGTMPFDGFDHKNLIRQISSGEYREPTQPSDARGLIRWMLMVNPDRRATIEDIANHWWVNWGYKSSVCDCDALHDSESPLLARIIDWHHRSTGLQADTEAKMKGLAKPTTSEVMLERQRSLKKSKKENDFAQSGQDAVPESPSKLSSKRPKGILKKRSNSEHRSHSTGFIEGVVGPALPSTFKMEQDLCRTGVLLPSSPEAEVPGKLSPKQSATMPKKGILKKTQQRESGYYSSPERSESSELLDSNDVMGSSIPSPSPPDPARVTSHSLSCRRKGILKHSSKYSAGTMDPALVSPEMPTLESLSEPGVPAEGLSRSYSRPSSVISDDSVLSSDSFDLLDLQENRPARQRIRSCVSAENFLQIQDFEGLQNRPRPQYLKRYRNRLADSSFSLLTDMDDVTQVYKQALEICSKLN
# RPS6KB1 (human), P23443 [T412E], sequence (P23443 whole entry T412E, looked up): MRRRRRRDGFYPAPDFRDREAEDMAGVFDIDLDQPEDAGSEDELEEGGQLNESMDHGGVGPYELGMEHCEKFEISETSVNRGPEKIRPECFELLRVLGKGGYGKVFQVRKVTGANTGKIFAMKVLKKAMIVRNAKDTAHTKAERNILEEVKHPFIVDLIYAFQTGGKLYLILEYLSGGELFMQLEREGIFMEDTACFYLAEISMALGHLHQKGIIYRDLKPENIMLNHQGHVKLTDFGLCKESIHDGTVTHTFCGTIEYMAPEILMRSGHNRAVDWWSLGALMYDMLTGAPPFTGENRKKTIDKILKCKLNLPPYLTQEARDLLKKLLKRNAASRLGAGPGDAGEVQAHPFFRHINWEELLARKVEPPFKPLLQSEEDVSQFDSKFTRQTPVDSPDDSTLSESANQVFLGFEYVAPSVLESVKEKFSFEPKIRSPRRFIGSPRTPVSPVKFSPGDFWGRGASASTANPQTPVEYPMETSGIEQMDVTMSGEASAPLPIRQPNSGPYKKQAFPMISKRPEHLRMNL
# MAPK9 (human), sequence (P45984 whole entry, looked up): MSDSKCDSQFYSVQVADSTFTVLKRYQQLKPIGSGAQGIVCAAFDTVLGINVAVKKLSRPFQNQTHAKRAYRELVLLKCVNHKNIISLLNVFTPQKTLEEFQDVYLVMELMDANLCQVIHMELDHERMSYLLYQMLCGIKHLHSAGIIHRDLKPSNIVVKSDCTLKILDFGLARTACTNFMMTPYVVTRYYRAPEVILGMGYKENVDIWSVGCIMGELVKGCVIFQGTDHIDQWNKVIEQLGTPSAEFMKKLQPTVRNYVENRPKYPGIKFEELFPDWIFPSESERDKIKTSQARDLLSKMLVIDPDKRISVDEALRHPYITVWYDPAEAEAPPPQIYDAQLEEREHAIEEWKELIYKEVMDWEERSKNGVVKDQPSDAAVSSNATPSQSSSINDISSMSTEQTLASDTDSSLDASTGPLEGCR
# IKBKB (human), sequence (O14920 whole entry, looked up): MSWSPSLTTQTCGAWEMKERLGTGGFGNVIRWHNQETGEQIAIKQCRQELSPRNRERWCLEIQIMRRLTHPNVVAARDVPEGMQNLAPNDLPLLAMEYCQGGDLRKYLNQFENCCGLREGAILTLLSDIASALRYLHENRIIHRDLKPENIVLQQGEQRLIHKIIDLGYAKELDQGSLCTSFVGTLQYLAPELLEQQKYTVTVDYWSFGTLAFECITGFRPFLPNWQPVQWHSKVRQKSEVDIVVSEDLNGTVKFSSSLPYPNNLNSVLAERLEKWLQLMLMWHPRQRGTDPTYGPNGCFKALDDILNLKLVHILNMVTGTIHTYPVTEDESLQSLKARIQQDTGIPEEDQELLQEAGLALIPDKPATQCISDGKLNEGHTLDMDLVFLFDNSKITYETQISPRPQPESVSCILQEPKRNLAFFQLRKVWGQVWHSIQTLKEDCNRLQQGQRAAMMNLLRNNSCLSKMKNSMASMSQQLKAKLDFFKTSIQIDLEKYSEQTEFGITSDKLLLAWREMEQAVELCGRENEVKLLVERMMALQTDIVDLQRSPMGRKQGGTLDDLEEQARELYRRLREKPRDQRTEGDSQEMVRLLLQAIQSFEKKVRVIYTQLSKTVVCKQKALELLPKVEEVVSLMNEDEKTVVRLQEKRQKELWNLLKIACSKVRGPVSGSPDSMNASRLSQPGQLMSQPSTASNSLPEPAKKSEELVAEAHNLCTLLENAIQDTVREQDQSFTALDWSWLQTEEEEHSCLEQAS
smiles,measurement,setting,value
CCN1CCN(Cc2ccc(NC(=O)c3ccc(C)c(Oc4ccnc5[nH]ccc45)c3)cc2C(F)(F)F)CC1,residual activity,MAPKAPK3 (human); compound 0.1 µM,90.1%
same,residual activity,MAPKAPK3 (human); compound 1.0 µM,82.3%
same,residual activity,MAPKAPK3 (human); compound 10.0 µM,96.7%
same,residual activity,CHEK2 (human); compound 0.1 µM,117%
same,residual activity,CHEK2 (human); compound 1.0 µM,103%
same,residual activity,CHEK2 (human); compound 10.0 µM,67.9%
same,residual activity,CHEK1 (human); compound 0.1 µM,114%
same,residual activity,CHEK1 (human); compound 1.0 µM,105%
same,residual activity,CHEK1 (human); compound 10.0 µM,110%
same,residual activity,[1]; compound 0.1 µM,107%
same,residual activity,[1]; compound 1.0 µM,63.6%
same,residual activity,[1]; compound 10.0 µM,12.9%
same,residual activity,NEK2 (human); compound 0.1 µM,112%
same,residual activity,NEK2 (human); compound 1.0 µM,107%
same,residual activity,NEK2 (human); compound 10.0 µM,93.4%
same,residual activity,PKN2 (human); compound 0.1 µM,102%
same,residual activity,PKN2 (human); compound 1.0 µM,93.3%
same,residual activity,PKN2 (human); compound 10.0 µM,78.6%
same,residual activity,TLK1 (human); compound 0.1 µM,107%
same,residual activity,TLK1 (human); compound 1.0 µM,92.2%
same,residual activity,TLK1 (human); compound 10.0 µM,92.1%
same,residual activity,MKNK2 (human); compound 0.1 µM,109%
same,residual activity,MKNK2 (human); compound 1.0 µM,112%
same,residual activity,MKNK2 (human); compound 10.0 µM,82.8%
same,residual activity,TAOK1 (human); compound 0.1 µM,98.9%
same,residual activity,TAOK1 (human); compound 1.0 µM,67.3%
same,residual activity,TAOK1 (human); compound 10.0 µM,26.9%
same,residual activity,[2]; compound 0.1 µM,105%
same,residual activity,[2]; compound 1.0 µM,100%
same,residual activity,[2]; compound 10.0 µM,69%
same,residual activity,DYRK2 (human); compound 0.1 µM,102%
same,residual activity,DYRK2 (human); compound 1.0 µM,101%
same,residual activity,DYRK2 (human); compound 10.0 µM,94.5%
same,residual activity,PAK7 (human); compound 0.1 µM,108%
same,residual activity,PAK7 (human); compound 1.0 µM,104%
same,residual activity,PAK7 (human); compound 10.0 µM,87.5%
same,residual activity,MAPK1 (human); compound 0.1 µM,101%
same,residual activity,MAPK1 (human); compound 1.0 µM,102%
same,residual activity,MAPK1 (human); compound 10.0 µM,106%
same,residual activity,MAPK15 (human); compound 0.1 µM,106%
same,residual activity,MAPK15 (human); compound 10.0 µM,44.6%
same,residual activity,EPHB4 (human); compound 0.1 µM,97.3%
same,residual activity,EPHB4 (human); compound 1.0 µM,92.6%
same,residual activity,EPHB4 (human); compound 10.0 µM,42.7%
same,residual activity,PRKACA (human); compound 0.1 µM,100%
same,residual activity,PRKACA (human); compound 1.0 µM,93.4%
same,residual activity,PRKACA (human); compound 10.0 µM,76.2%
same,residual activity,RPS6KA3 KD1 KD2 (human); compound 0.1 µM,94.8%
same,residual activity,RPS6KA3 KD1 KD2 (human); compound 1.0 µM,93.8%
same,residual activity,RPS6KA3 KD1 KD2 (human); compound 10.0 µM,76.3%
same,residual activity,MAPK9 (human); compound 0.1 µM,90.8%
same,residual activity,MAPK9 (human); compound 1.0 µM,21.8%
same,residual activity,MAPK9 (human); compound 10.0 µM,4.89%
same,residual activity,MAPK3 (human); compound 0.1 µM,99%
same,residual activity,MAPK3 (human); compound 1.0 µM,103%
same,residual activity,MAPK3 (human); compound 10.0 µM,99.7%
same,residual activity,HIPK1 (human); compound 0.1 µM,95%
same,residual activity,HIPK1 (human); compound 1.0 µM,70.8%
same,residual activity,HIPK1 (human); compound 10.0 µM,28.7%
same,residual activity,MAPK11 (human); compound 0.1 µM,74.9%
same,residual activity,MAPK11 (human); compound 1.0 µM,16.6%
same,residual activity,MAPK11 (human); compound 10.0 µM,9.04%
same,residual activity,EPHA4 (human); compound 0.1 µM,96.3%
same,residual activity,EPHA4 (human); compound 1.0 µM,28.7%
same,residual activity,EPHA4 (human); compound 10.0 µM,7.58%
same,residual activity,SYK (human); compound 0.1 µM,103%
same,residual activity,SYK (human); compound 1.0 µM,47.1%
same,residual activity,SYK (human); compound 10.0 µM,11.5%
same,residual activity,FLT1 (human); compound 0.1 µM,69.5%
same,residual activity,FLT1 (human); compound 1.0 µM,15.2%
same,residual activity,FLT1 (human); compound 10.0 µM,2.74%
same,residual activity,PAK6 (human); compound 0.1 µM,104%
same,residual activity,PAK6 (human); compound 1.0 µM,90.4%
same,residual activity,PAK6 (human); compound 10.0 µM,94%
same,residual activity,NUAK1 (human); compound 0.1 µM,85.8%
same,residual activity,NUAK1 (human); compound 1.0 µM,90.5%
same,residual activity,NUAK1 (human); compound 10.0 µM,84.9%
same,residual activity,IKBKB (human); compound 0.1 µM,114%
same,residual activity,IKBKB (human); compound 1.0 µM,101%
same,residual activity,IKBKB (human); compound 10.0 µM,44.6%
same,residual activity,DAPK1 (human); compound 1.0 µM,80.9%
same,residual activity,DAPK1 (human); compound 10.0 µM,84.1%
same,residual activity,EEF2K (human); compound 0.1 µM,110%
same,residual activity,EEF2K (human); compound 1.0 µM,102%
same,residual activity,EEF2K (human); compound 10.0 µM,100%
